According to article PMC7822874, “Chemoprotective antimalarials identified through quantitative high-throughput screening of Plasmodium blood and liver stage parasites” (Scientific Reports, 2021):

Assay: in vitro
Conditions: human, hepg2-a16-cd81egfp cells, % viability
Note: reference of the scale not given here.

Structure (SMILES): Cc1ccc(-c2nn(-c3ccccc3)c3[nH]c(=O)c(CNCc4ccccc4)cc23)cc1 [MLS000067457]
- viability at 3 µM: 95.4%

Structure (SMILES): CCOc1ccc2c(c1)OC(c1ccc(C)cc1)(C(F)(F)F)NC2=O (centres unmarked) [MLS000392832]
- viability at 3 µM: 63.5%

Structure (SMILES): COc1ccc2nc(N3CCN(C(=O)c4ccc([N+](=O)[O-])o4)CC3)sc2c1 [MLS001234236]
- viability at 3 µM: 89.3%

Structure (SMILES): Cc1cc(C)cc(C(=O)Nc2ccc3c(N4CCCC4)ncnc3c2)c1 [NCGC00425487]
- viability at 3 µM: 31.8%

Structure (SMILES): CCc1nc(N)nc(N)c1-c1ccc(Cl)cc1 [NCGC00023188]
- viability at 3 µM: 95.9%

Structure (SMILES): N#Cc1c2c(c(NCc3ccco3)n3c1nc1ccccc13)CCC2 [MLS000109113]
- viability at 3 µM: 97.7%

Structure (SMILES): COC(=O)C1=CN(Cc2ccc(OC)cc2)C=C(C(=O)OC)C1c1cc(OC)c(OC)c(OC)c1 [MLS001197127]
- viability at 3 µM: 105%

Structure (SMILES): Cc1ccc(NC(=O)N(Cc2ccc3c(c2)OCO3)Cc2cc3cc4c(cc3[nH]c2=O)OCCO4)cc1 [MLS000033889]
- viability at 3 µM: 101%

Structure (SMILES): CC(C)N1CC=C(c2c[nH]c3ccccc23)CC1 [MLS000093714]
- viability at 3 µM: 93.1%

Structure (SMILES): Oc1c(CN2CCN(c3ccccn3)CC2)cc(Cl)c2cccnc12 [NCGC00055619]
- viability at 3 µM: 77.4%

Structure (SMILES): Cc1ccc(Nc2nnc(SCC(=O)c3ccc(O)cc3O)s2)cc1 [MLS001176347]
- viability at 3 µM: 99.9%

Structure (SMILES): CCCCCCCc1c(C)[nH]c(N2CCOCC2)nc1=O [MLS000531187]
- viability at 3 µM: 90.5%

Structure (SMILES): Cc1cc(Nc2ccc(C(C)C)cc2)n2ncnc2n1 [MLS000116597]
- viability at 3 µM: 96.1%

Structure (SMILES): O=C(Nc1ccncc1)Nc1cccc(Cl)c1Cl [MLS001224778]
- viability at 3 µM: 96.5%

Structure (SMILES): CC1=C[C@@H](CNCc2cccnc2)[C@H](C(C)C)C[C@H]1Cc1nnc(-c2ccc([N+](=O)[O-])cc2)o1 [NCGC00394797]
- viability at 3 µM: 91.7%

Structure (SMILES): CCOc1ccc(-n2c(SCC(N)=O)nc3sc4c(c3c2=O)CCN(C)C4)cc1 [MLS000332254]
- viability at 3 µM: 95.7%

Structure (SMILES): Oc1cccc(Nc2nc(NCC3CCCO3)c3ccccc3n2)c1 (centres unmarked) [MLS000026845]
- viability at 3 µM: 95.5%

Structure (SMILES): O=C(c1ccc([N+](=O)[O-])o1)N1CCN(c2nc3c(Cl)cccc3s2)CC1 [MLS001234208]
- viability at 3 µM: 90.1%

Structure (SMILES): O=C(NC1=C(Nc2ccc(F)cc2)C(=O)c2ccccc2C1=O)c1ccc(Cl)cc1 [MLS000375026]
- viability at 3 µM: 97%

Structure (SMILES): c1ccc(Nc2cc3c(cn2)CN(Cc2ccc4[nH]ccc4c2)CCN3)cc1 [NCGC00411105]
- viability at 3 µM: 49.4%

Structure (SMILES): O=C1N(c2ccccc2C(F)(F)F)OC1(Cc1ccccc1)c1ccccc1 (centres unmarked) [MLS002206595]
- viability at 3 µM: 85%

Structure (SMILES): CCOc1ccc(C(=O)Nc2ccc(-c3nc4ccccc4[nH]3)cc2)cc1[N+](=O)[O-] [MLS000577721]
- viability at 3 µM: 101%

Structure (SMILES): Cc1cc(C)[n+](C)n1CC(O)Cn1c2ccccc2c2ccccc21 (centres unmarked) [MLS000711524]
- viability at 3 µM: 104%
